Test results: ChEMBL document CHEMBL1201862, “PubChem BioAssay data set” (2004)
The source made the active and inactive calls.

Key:
[1] = target: Prothrombin (Homo sapiens, UniProt P00734); assay: Thrombin 1536 HTS Dose Response Confirmation. [Related pubchem assays: 1046 (Thrombin 1536 HTS; hits were confirmed in this assay)]; type: functional
[2] = viability loss in Vero cells – cytotoxicity control for Vif-APOBEC3G degradation inhibitor project, dose response (AID 1117358); type: functional; conditions: Vero
[3] = Luminescence Cell-Based Dose Confirmation HTS to Identify Inhibitors of Polyadenylation.; type: functional
[4] = viability of PTEN-deleted HCT116 cells – cell-based, HCT116 PTEN knockout, dose response (AID 1047); type: functional;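 also: HCT116 colon tumor cells with PTEN knocked out; cells exposed to compound for 60 hours before readout; potency for loss of cell viability measured by luminescence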
[5] = viability of HCT116 lacking mutant beta-catenin – cell-based, human colon tumor, dose response (AID 1045); type: functional;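 also: HCT116 colon tumor cells with beta catenin knocked out; cells exposed to compound for 60 hours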
[6] = target: Induced myeloid leukemia cell differentiation protein Mcl-1 (Homo sapiens, UniProt Q07820); type: functional
Sequence of Induced myeloid leukemia cell differentiation protein Mcl-1 (Q07820 whole entry): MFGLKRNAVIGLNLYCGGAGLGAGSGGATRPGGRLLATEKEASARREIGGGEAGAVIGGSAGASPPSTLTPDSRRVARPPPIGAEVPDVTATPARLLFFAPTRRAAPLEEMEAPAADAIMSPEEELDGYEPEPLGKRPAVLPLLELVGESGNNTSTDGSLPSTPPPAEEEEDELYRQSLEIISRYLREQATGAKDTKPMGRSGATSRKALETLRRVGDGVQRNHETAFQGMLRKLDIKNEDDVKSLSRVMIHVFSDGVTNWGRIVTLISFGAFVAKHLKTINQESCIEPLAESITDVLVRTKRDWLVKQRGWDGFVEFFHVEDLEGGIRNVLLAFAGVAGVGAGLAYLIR

[7] = target: T1, Protein Tat (Human immunodeficiency virus type 1 group M subtype B (isolate HXB2)(HIV-1), UniProt P04608); type: functional;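 also: tat binding to TAR RNA read out by fluorescence polarization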
T1 sequence (P04608 whole entry): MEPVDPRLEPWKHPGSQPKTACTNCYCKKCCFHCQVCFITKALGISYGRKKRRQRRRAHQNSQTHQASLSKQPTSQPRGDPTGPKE

[8] = target: T2, Fatty acid synthase (Homo sapiens, UniProt P49327); assay: inhibition of human FAS-TE enzyme activity – biochemical, kinetic fluorescence intensity, dose response (AID 624326); type: functional;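 also: rate of fluorescence rise from hydrolysis of a fluorogenic O-methyl fluorescein ester substrate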
T2 sequence (P49327 whole entry): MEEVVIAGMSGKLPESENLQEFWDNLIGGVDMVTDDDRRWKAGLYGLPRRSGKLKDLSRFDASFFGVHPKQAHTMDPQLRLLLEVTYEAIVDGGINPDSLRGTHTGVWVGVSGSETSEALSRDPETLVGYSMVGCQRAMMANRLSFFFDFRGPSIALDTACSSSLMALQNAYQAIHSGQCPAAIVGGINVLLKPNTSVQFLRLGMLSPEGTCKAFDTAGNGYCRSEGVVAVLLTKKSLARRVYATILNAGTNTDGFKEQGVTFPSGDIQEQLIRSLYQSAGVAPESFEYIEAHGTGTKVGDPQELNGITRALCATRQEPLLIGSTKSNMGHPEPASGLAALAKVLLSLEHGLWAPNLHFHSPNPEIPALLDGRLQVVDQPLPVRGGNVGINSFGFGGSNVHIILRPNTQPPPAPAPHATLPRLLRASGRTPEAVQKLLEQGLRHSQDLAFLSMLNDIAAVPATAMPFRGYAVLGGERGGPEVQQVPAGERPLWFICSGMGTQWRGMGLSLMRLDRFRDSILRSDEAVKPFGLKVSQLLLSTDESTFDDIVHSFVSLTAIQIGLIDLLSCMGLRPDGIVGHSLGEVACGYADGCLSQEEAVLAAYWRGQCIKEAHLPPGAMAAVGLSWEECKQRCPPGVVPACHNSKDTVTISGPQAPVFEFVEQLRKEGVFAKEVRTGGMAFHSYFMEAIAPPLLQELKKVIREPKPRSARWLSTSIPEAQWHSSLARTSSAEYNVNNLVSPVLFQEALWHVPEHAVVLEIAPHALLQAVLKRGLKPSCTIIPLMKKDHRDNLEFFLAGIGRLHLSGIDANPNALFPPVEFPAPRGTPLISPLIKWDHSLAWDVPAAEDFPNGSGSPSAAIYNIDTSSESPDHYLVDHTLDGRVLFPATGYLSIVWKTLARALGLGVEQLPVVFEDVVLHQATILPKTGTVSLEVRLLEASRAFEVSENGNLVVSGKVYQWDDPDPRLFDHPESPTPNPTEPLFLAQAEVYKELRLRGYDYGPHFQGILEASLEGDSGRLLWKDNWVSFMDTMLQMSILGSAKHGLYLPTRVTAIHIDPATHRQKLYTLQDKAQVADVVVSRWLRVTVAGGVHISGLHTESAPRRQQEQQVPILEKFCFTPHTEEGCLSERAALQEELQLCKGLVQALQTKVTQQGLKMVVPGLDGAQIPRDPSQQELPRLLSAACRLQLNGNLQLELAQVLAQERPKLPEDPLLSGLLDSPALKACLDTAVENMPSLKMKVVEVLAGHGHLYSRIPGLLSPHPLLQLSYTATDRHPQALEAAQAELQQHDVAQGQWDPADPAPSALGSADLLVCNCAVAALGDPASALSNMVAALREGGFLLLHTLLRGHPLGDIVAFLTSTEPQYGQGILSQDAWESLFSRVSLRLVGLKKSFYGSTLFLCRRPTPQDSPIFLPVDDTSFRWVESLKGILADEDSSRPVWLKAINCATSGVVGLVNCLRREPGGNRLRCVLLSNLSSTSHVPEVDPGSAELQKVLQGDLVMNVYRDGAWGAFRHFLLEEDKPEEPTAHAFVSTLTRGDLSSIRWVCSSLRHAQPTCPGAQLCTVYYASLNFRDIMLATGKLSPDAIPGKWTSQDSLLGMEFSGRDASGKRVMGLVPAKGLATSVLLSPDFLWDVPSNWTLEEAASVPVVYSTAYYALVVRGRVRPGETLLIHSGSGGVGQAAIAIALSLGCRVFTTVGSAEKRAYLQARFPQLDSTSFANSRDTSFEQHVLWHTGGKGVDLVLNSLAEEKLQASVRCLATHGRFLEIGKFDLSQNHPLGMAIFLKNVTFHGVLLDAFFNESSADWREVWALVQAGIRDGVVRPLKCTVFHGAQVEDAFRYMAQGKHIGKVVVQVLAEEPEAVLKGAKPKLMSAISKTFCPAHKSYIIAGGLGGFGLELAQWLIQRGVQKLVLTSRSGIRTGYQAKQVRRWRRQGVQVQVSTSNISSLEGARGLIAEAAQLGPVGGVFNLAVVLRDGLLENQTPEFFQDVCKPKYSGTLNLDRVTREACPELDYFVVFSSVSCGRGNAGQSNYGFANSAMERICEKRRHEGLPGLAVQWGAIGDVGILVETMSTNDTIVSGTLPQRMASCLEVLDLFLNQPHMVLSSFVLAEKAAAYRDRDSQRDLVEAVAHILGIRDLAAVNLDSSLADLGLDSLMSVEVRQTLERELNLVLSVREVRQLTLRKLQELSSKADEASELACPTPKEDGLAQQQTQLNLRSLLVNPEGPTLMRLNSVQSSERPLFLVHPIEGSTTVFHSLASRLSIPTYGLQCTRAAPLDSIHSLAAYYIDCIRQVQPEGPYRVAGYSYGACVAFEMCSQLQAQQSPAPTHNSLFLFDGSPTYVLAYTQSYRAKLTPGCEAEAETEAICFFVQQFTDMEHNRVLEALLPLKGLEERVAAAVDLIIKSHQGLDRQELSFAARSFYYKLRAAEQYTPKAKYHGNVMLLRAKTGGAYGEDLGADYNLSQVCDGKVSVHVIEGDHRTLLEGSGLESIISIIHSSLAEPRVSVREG

[9] = system: Streptococcus; assay: GAS UMAA2166 growth inhibition – luminescence, BacTiterGlo, counter-screen for streptokinase expression inhibitor project, dose response (AID 1915); type: functional, organism-based;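 also: potency for reduction of bacterial viability or growth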
[10] = system: Streptococcus sp. 'group A'; assay: Streptococcus pyogenes SK(-)GAS viability under kanamycin – luminescence, BacTiterGlo, confirmation, counter-screen for streptokinase expression inhibitor project, dose response (AID 1900); type: functional, organism-based
[11] = luciferase reporter signal suppression in cells – H4 neuroglioma cells, luminescence, dose response (AID 1990); type: functional, cell-based
[12] = target: Paired box protein Pax-8 (Homo sapiens, UniProt Q06710); assay: PAX8 transcriptional activity inhibition in RMG-I – RMG-I cells, luciferase, cherry-pick, dose response (AID 687027); type: functional, cell-based;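 also: luciferase reporter driven by Pax8 target thyroperoxidase promoter measured by SteadyGlo luminescence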
Sequence of Paired box protein Pax-8 (Q06710 whole entry): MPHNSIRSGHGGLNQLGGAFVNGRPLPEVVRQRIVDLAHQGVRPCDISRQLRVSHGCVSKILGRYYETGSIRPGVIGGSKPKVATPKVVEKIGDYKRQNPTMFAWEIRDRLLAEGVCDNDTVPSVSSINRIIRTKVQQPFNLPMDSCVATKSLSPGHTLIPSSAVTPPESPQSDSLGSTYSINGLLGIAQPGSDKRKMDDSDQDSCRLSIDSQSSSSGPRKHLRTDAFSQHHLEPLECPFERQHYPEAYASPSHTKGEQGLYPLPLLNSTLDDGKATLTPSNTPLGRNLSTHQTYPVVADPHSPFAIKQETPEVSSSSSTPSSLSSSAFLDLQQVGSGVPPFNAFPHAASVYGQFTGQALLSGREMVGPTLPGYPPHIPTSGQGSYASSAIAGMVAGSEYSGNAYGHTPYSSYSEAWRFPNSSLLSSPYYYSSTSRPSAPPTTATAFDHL

[13] = target: T3, Streptokinase A (Streptococcus pyogenes serotype M1, UniProt P10520); assay: viability-normalized secreted streptokinase activity reduction – plasminogen activation absorbance, OD405, dose response (AID 1914); type: functional, Streptococcus pyogenes M1 GAS;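 also: secreted streptokinase activity via plasminogen activation per viability signal from cell pellet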
T3 sequence (P10520 whole entry): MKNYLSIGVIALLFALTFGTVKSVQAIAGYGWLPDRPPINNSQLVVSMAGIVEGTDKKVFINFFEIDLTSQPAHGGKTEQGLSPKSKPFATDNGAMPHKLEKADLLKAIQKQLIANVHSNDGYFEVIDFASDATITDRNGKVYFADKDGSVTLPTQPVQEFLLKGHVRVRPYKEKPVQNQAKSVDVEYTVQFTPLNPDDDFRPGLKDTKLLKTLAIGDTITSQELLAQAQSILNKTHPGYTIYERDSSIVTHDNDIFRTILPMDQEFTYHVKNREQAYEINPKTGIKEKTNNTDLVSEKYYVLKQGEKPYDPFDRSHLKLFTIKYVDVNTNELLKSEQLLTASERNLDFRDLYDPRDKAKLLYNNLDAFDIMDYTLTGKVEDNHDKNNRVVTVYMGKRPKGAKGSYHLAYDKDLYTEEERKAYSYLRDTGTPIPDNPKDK

[14] = cells; type: functional, cell-based
[15] = Luminescence Cell-Based Dose Response HTS to Identify Inhibitors of 5'UTR Stem-Loop Driven Prion Protein mRNA Translation in H4 Neuroglioblastoma Cells. [Related pubchem assays: 1827 (Project Summary), 1813 (Primary HTS)]; type: functional
[16] = luciferase reporter signal reduction – luminescence, H4-C neuroglioblastoma cells, dose response (AID 2458); type: functional, cell-based;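 also: H4 neuroglioblastoma cells stably carrying a luciferase reporter gene fusion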
[17] = target: Photoreceptor-specific nuclear receptor (Homo sapiens, UniProt Q9Y5X4); type: functional, cell-based;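 also: CHO-S cells with Gal4-NCOR and VP16-NR2E3 two-hybrid luciferase reporter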
Sequence of Photoreceptor-specific nuclear receptor (Q9Y5X4 whole entry, the tested form may be a part): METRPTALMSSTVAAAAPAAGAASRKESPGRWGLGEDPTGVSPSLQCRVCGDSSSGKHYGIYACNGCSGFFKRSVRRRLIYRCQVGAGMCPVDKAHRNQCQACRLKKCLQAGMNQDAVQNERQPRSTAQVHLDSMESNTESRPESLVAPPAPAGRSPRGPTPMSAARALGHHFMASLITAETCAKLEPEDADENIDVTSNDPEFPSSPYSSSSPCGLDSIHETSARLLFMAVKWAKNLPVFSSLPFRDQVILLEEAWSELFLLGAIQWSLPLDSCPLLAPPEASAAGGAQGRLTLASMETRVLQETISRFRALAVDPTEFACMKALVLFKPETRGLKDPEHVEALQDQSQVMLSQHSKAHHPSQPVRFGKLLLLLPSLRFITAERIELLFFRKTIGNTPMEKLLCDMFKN

[18] = target: T2, Fatty acid synthase; assay: inhibition of human FAS-TE enzyme activity – biochemical, endpoint fluorescence intensity, uHTS hits, dose response (AID 624327); type: functional;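 also: fluorescence from hydrolysis of an O-methyl fluorescein acyl ester substrate by the enzyme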
[19] = alpha-synuclein stem-loop translation blockers – luminescence, H4 neuroglioblastoma cells, dose confirmation, confirmation (AID 2454); type: functional, cell-based;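 also: H4 neuroglioblastoma cells carrying an alpha-synuclein 5'UTR luciferase reporter; potency for inhibition of the luciferase signal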
[20] = alpha-synuclein stem-loop luciferase translation blockers – H4 neuroglioma cells, luminescence, confirmation (AID 1988); type: functional, cell-based
[21] = Luminescence-based dose response cell-based high throughput screening assay for cytotoxic compounds using the IEC-6 intestinal epithelial cell line. [Related pubchem assays: 1858 (Summary AID.), 1825 (Counterscreen.), 1907 (Confirmation screen.)]; type: functional
[22] = cells; type: functional
[23] = target: T4, Fibrinogen beta chain (Homo sapiens, UniProt P02675); assay: Fluorescence polarization-based biochemical high throughput dose response assay to identify inhibitors that disrupt the binding of a cyclic peptide (Tn7) to the fibrin proteolytic product D-Dimer and fragment E complex [DD(E )].
T4 sequence (P02675 whole entry): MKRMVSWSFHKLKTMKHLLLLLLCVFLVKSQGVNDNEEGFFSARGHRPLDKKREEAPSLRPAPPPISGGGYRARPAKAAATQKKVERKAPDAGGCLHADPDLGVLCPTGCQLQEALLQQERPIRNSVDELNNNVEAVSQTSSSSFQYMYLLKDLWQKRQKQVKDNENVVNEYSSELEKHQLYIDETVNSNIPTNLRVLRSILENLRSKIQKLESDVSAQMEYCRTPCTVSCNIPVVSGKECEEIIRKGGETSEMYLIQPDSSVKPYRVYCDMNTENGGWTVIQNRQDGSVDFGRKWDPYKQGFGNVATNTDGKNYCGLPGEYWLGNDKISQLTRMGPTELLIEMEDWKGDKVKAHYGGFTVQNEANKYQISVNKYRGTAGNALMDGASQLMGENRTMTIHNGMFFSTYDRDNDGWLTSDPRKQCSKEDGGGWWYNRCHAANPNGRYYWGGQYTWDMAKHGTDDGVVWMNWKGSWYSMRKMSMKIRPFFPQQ

[24] = target: T4, Fibrinogen beta chain; assay: Fluorescence polarization-based biochemical high throughput dose response assay to identify inhibitors that disrupt the binding of a cyclic peptide (Tn6) to the fibrin proteolytic product D-Dimer and fragment E complex [DD(E )].

In the case of `Cc1ccc(NC(=O)c2ccc(OC(=O)COc3cccc(Cl)c3)cc2)cc1`, the IC50 [1] was 0.596 µM (active).

In the case of `CC(=O)Nc1ccc(S(=O)(=O)N2CCN(CCCOc3ccccc3Cl)CC2)cc1`, the CC50 [2] was > 40 µM (active).

For `Cc1cc2c(cc1S(=O)(=O)N(C)c1ccccc1)n(C)c(=O)n2C`, the EC50 [3] was > 120 µM (not active).

In the case of `O=C1NC(=S)N/C1=C/c1ccc(-c2c(Br)cc([N+](=O)[O-])cc2Br)o1`, the CC50 [2] was > 40 µM (active), the EC50 [4] was 40.5 µM (active) and the EC50 [5] was 35.2 µM (active). For the same compound, the IC50 [6] was 2.48 µM (active) and the IC50 [7] was > 100 µM (active).

For `CC(C)N1CCc2c(sc(NC(=O)c3ccc([N+](=O)[O-])o3)c2C(N)=O)C1`, the IC50 [8] was 5.65 µM (active), the EC50 [9] was 8.99 µM (active) and the EC50 [10] was 3.19 µM (active). For the same compound, the EC50 [11] was 4.38 µM (active), the AC50 [12] was 1.16 µM (active) and the EC50 [13] was > 150 µM (not active). For the same compound, the EC50 [14] was 0.496 µM (active), the EC50 [15] was < 0.1 µM (active) and the EC50 [16] was 0.3 µM (active). The IC50 [17] was 4.58 µM (active), the IC50 [18] was 6.27 µM (active) and the EC50 [19] was 0.953 µM (active). The EC50 [20] was 0.145 µM (active) and the IC50 [21] was 1.32 µM (active).

For `COc1cccc2cc(-c3nc4ccccc4o3)c(=O)oc12`, the EC50 [3] was > 120 µM (not active) and the IC50 [22] was 14.9 µM (active).

With `Cc1cc(C)c(S(=O)(=O)NCCn2c(C)cc3ccccc32)c(C)c1` the IC50 [23] was > 83.3 µM (inactive) and the IC50 [24] was 15.1 µM (inactive).
